One data set concerns LNcap cells. In words: Inhibitory effect on proliferation of LNcap cells (CCK-8, 72 h). The note with it: Homo sapiens, LNcap cells, CCK-8, read-out: LNcap cells IC50. The data set is classed as cell-based. The method, then: A dish of LNcap cells (human prostate cancer cells with PTEN deficiency) growing at log phase and in good conditions were taken and digested for 3 min by using 1 mL of pancreatin, then the mixture was added with 4 mL of complete culture medium to terminate digestion, and the cells were added to a centrifuge tube. 20 μL of cells were taken and counted, the required number of cells (mL) was pipetted and centrifuged at 1200 rpm for 5 min, the supernatant was discarded, and an appropriate amount of plating medium (RPMI medium+5% FBS+1% sodium pyruvate+1% glutamine) was added to adjust the cell density to 3×10^4 cells/mL. The cells were seeded on a 96-well plate at 100 μL/well using a multi-channel pipette and cultured in a cell incubator at 37° C., 5% CO2 and saturated humidity. After incubation overnight, compounds were loaded using a nanoliter pipettor, 2 duplicate wells were set for each concentration, and cells without compound were used as negative controls. After 72 h, CCK-8 was added at 10 μL/well for incubation for 4 h, then absorbance was measured at 450 nm with an Envision plate reader, and inhibition rate was calculated. Inhibition rate (%)=(mean value of negative control group−mean value of experimental group)/(mean value of negative control group−mean value of blank group)×100%. A dose-response curve was fitted by four-parameter analysis, with the logarithm of compound concentration as abscissa and inhibition rate as ordinate, so that IC50 was calculated.

In a further data set the target is T1, AKT1 (S473) (Homo sapiens, UniProt P31749).
T1 construct: endogenous in cells; host or cells: LNcap cells
T1 sequence (P31749 whole entry): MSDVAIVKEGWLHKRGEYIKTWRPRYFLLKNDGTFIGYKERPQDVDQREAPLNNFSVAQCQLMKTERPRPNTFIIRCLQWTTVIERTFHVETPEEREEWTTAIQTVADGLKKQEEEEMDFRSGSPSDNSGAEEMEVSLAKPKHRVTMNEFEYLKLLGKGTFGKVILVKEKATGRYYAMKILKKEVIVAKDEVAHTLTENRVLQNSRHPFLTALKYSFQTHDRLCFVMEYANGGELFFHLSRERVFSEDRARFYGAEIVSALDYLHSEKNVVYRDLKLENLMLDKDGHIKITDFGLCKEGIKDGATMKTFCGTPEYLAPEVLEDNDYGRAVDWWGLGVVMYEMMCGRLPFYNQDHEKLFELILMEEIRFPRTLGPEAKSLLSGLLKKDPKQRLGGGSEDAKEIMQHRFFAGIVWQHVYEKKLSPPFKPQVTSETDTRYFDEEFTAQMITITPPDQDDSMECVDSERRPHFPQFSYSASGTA
In words: Inhibitory effect on phosphorylation of LNcap cells AKT1 (S473). The note with it: 1 h incubation. The format is cell-based. As to the method:
LNcap cells AKT1 (S473) growing at log phase were taken, digested with 1 mL of pancreatin for 3 min, and added with 4 mL of complete medium to terminate digestion. The cells were added to a centrifuge tube. 20 μL of cells were taken and counted, the required number of cells (mL) was taken and centrifuged at 1200 rpm for 5 min, and a plating medium (2% FBS+phenol-free red 1640 base medium+1% sodium pyruvate+1% glutamine) was added to adjust the cell density to about 1×10E6 cells/mL. The cells were plated (96 wells) at the above cell density (100 μL/well), and cultured in a cell incubator at 37° C., 5% CO2 overnight; the next day, according to the plate distribution, the corresponding compound was sprayed using a nanoliter pipettor and incubated for 1 h at 37° C. in a cell incubator containing 5% CO2; the supernatant was discarded, and the plate was added with 40 μL of lysis buffer (1×) containing blocking buffer and incubated by shaking at room temperature for 30 min. After the mixture was mixed, 16 μL of lysate was transferred to another 384-well small-volume white plate. The plate was added with 4 μL of pre-mixed antibody (v/v) in assay buffer, covered, centrifuged to mix well, and incubated overnight at room temperature. The 665 nm/620 nm signal value was detected using a PE Envision multi-functional microplate reader, and IC50 was calculated by four-parameter fitting.

The nature of data set [1]: Pharmacokinetic evaluation in mice. Also noted: Cl: unit not given here. The data set is classed as in vivo. The note with it: ICR mice; for AUC(0-inf) / AUC(0-t) / Cmax / Tmax / bioavailability / MRT last / Vd: mouse, plasma; for bioavailability: IG 10 mg/kg vs IV 1 mg/kg, read-out: Absolute bioavailability F %; for MRT last: read-out: MRT(0-t). As to the method:
ICR mice, weight 18-22 g, after adaption for 3-5 days, were randomly divided into 4 groups of 9 mice, each group was intragastrically (IG) administered with compound 28 or compound 30 at a dose of 10 mg/kg, or intravenously (IV) administered with compound 28 or compound 30 at a dose of 1 mg/kg.
The animals to be tested (ICR mice) were fasted for 12 h before administration and food was provided 4 h after administration, and water was freely drunk before and after the experiment and during the experiment.
After intragastric administration, about 0.1 mL of blood was taken from eye sockets at 15 min, 30 min, 1 h, 2 h, 3 h, 4 h, 6 h, 8 h, 10 h, and 24 h; after intravenous injection, about 0.1 mL of blood was taken from eye sockets at 5 min, 10 min, 30 min, 1 h, 2 h, 4 h, 6 h, 8 h, 10 h, and 24 h; each mouse was collected at 3-4 time points and 3 mice were collected at each time point, whole blood was collected, placed in centrifuge tubes containing EDTA-K2, and stored at 4° C. within 1 h, and the plasma was separated off by centrifugation at 4° C. and 4000 rpm for 10 min. All the plasma samples were collected and immediately stored at −20° C. for testing. 30 μL of the plasma sample to be tested and a standard curve sample were pipetted and added with 300 μL of acetonitrile solution containing an internal standard (20 ng/mL diazepam), shaken and mixed well for 5 min, and centrifuged at 13,000 rpm for 10 min. 80 μL of supernatant was taken and diluted with 80 μL of ultrapure water. After being mixed well, 2 μL of the resulting sample was taken for liquid chromatography-mass determination, and a chromatogram was recorded.
Oral and intravenous exposure of the compound of the present application was evaluated by in vivo pharmacokinetic experiment in mice.

Data set [2] relates to AN3CA human endometrial cancer cells. In words: Pharmacodynamics in subcutaneous xenograft tumor nude mouse model of AN3CA human endometrial cancer cells. The data set is classed as in vivo, BALB/C nude mice. The note with it: for in vivo tumor inhibition effect (in words) / Relative tumor volume (mean ± SD) / Tumor volume (mm^3) (mean ± SD): AN3CA xenograft; for in vivo tumor inhibition effect (in words): 20 mg/kg i.g. qd; for Relative tumor volume (mean ± SD) / Tumor volume (mm^3) (mean ± SD) / Weight change rate (%) (mean ± SD) / TGI (%) / T/C (%): day 14, 20 mg/kg i.g. qd 14 d; for Weight change rate (%) (mean ± SD): body weight; for TGI (%): by tumor weight, ** p < 0.01 vs control; for T/C (%): relative tumor proliferation rate. The method, then:
SPF-grade female BALB/C nude mice (from Changzhou Cavens Laboratory Animal Ltd.) were inoculated subcutaneously at the right side armpit with 5×10^6 AN3CA cells (sourec: Nanjing Cobioer Biosciences Co., Ltd.).
The day of grouping was determined as do, and the intragastric administration was started on the grouping day, and the administration volume was 10 mL/kg. The solvent was: D5W (5% glucose solution). The tumor volume was measured 2-3 times a week, meanwhile, the mice were weighed and the data were recorded; the general behavior of the mice was observed and recorded every day. After the experiment was completed, the tumors were removed, weighed and photographed.
Calculation formula for tumor volume: Tumor volume (mm^3)=½×(a×b^2) (where a represents long diameter and b represents short diameter).
Relative tumor proliferation rate (T/C %) refers to the percentage of the relative tumor volume of the treatment and control groups at a certain time point. The calculation formula is as follows: T/C %=TRTV/CRTV×100% (TRTv: mean relative tumor volume (RTV) for treatment group; CRTV: mean RTV for vehicle control group; RTV=TVt/TV0, where TV0 is the tumor volume at grouping, TVt is the tumor volume after treatment).
The calculation formula for weight change rate (WCR) (%) is: WCR=(Wtt−Wt0)/Wt0×100%, where Wt0 is the body weight of the animal at grouping (i.e., d0), Wtt is the body weight of the animal at each measurement.
All experimental results are expressed as mean±SD (mean±standard deviation). The relative tumor volume of the treatment group was compared with that of the control group for any significant difference by T tests, wherein p<0.01 indicates a very significant difference.
On the technique in general: In xenograft studies the graft and the host belong to different species.

The values that follow come from patent publication US20230357242A1, “COMPOUND AS AKT KINASE INHIBITOR” (CHIA TAI TIANQING PHARMACEUTICAL GROUP CO., LTD., priority 2020, published 2023).

Molecules are shown by their SMILES. Where two headings read alike, the source gives them in different places.

On to `CC(=O)N1CC2(C1)CN(c1cccc(-c3ccc4nc(-c5cccnc5N)n(-c5ccc(C6(N)CCC6)cc5)c4n3)c1F)C2` [Compound 28], for which the IC50 with LNcap cells came out at 3 nM. Further, the IC50 against AKT1 (S473) turned out to be 28 nM. The compound also had a t1/2z in data set [1] (IG 10 mg/kg) of 5.31 h. Also, in data set [1] (IV 1 mg/kg), the Cl amounted to 3.95, the t1/2z was found to be 1.74 h, the AUC(0-inf) was 253 ng·h/mL and the AUC(0-t) worked out at 246 ng·h/mL. In data set [1] (IV 1 mg/kg), the distribution volume (Vd) stood at 9.92 L/kg and the MRT last amounted to 1.49 h. In data set [1] (po, IG 10 mg/kg), the AUC(0-inf) stood at 896 ng·h/mL, the AUC(0-t) came out at 871 ng·h/mL, the Cmax is 140 ng/mL and the Tmax came to 2 h. The MRT last in data set [1] (po, IG 10 mg/kg) turned out to be 5.28 h. For the same compound, the bioavailability in data set [1] (po) was determined as 35.4%. In addition, in data set [2], the “in vivo tumor inhibition effect (in words)” value is “strong in vivo tumor inhibition effects”, the “Relative tumor volume (mean ± SD)” value worked out at 10.5 ± 3.4, the “Tumor volume (mm^3) (mean ± SD)” value is 1267 ± 249 mm^3 and the “Weight change rate (%) (mean ± SD)” value is given as 4.9 ± 2.7%. Besides, in data set [2], the “TGI (%)” value is 53.2%** and the “T/C (%)” value is given as 44.3%.
In the case of `Nc1ncccc1-c1nc2ccc(-c3cccc(N4CCC(N5CCCC5=O)CC4)c3F)nc2n1-c1ccc(C2(N)CCC2)cc1` [Compound 30], the IC50 in the data set on LNcap cells came out at 4.8 nM. On AKT1 (S473), this compound displayed an IC50 of 22 nM. This compound also returned a t1/2z in data set [1] (IG 10 mg/kg) of 6.58 h. In data set [1] (IV 1 mg/kg), this compound displayed a Cl of 2.08, a t1/2z of 1.48 h, an AUC(0-inf) of 482 ng·h/mL and an AUC(0-t) of 476 ng·h/mL. Moreover, in data set [1] (IV 1 mg/kg), the distribution volume (Vd) was found to be 4.43 L/kg and the MRT last was 1.04 h. Moreover, in data set [1] (po, IG 10 mg/kg), the total exposure AUC(0-inf) is 2880 ng·h/mL, the exposure AUC(0-t) was found to be 2770 ng·h/mL, the maximum concentration (Cmax) was 542 ng/mL and the time of peak concentration (Tmax) was determined as 2 h. Also, in data set [1] (po, IG 10 mg/kg), the MRT last was found to be 5.01 h. Besides, the bioavailability in data set [1] (po) turned out to be 58.2%. For the same compound, in data set [2], the “in vivo tumor inhibition effect (in words)” value is “strong in vivo tumor inhibition effects”, the “Relative tumor volume (mean ± SD)” value turned out to be 9.7 ± 2.2, the “Tumor volume (mm^3) (mean ± SD)” value amounted to 1242 ± 354 mm^3 and the “Weight change rate (%) (mean ± SD)” value was found to be 2.3 ± 3.5%. Further, in data set [2], the “TGI (%)” value was 58.4%** and the “T/C (%)” value is listed as 40.9%.

As a reminder, the IC50 is the concentration that inhibits the measured activity by half. By AUC(0-inf) is commonly meant total exposure, with the tail of the curve extrapolated. As usually defined, the AUC(0-t) is exposure summed from dosing to a finite time, without extrapolation to infinity. Broadly, the Cmax is the highest concentration seen after dosing. For orientation: Tmax means the time at which the peak concentration occurs. The term bioavailability denotes dose-corrected exposure relative to a reference, in per cent. In general, Vd refers to the apparent volume that relates the amount in the body to the concentration in plasma or blood.
